Results reported in PubChem BioAssay (NCI).
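Cultured in 96-well plates, cells were exposed to test compound for 48 hours across five concentrations. At the GI50, growth is halved. TGI marks complete inhibition of growth.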

How the values were obtained:
Experiment in all cases: DTP human tumour cell line panel, 48 h
A498 renal = tested on: A498 renal
786-0 renal = tested on: 786-0 renal
OVCAR-5 ovarian = tested on: OVCAR-5 ovarian
HS 578T breast = tested on: HS 578T breast
NCI-H226 lung = tested on: NCI-H226 lung
SK-MEL-5 melanoma = tested on: SK-MEL-5 melanoma
NCI/ADR-RES ovarian = tested on: NCI/ADR-RES ovarian
UACC-257 melanoma = tested on: UACC-257 melanoma
HCT-116 colon = tested on: HCT-116 colon
HCT-15 colon = tested on: HCT-15 colon
DU-145 prostate = tested on: DU-145 prostate
T-47D breast = tested on: T-47D breast
HOP-62 NSCLC = tested on: HOP-62 NSCLC
HT29 colon = tested on: HT29 colon
SR leukemia = tested on: SR leukemia
BT-549 breast = tested on: BT-549 breast
SW-620 colon = tested on: SW-620 colon
NCI-H23 lung = tested on: NCI-H23 lung
SK-MEL-28 melanoma = tested on: SK-MEL-28 melanoma
K-562 leukemia = tested on: K-562 leukemia
RPMI-8226 leukemia = tested on: RPMI-8226 leukemia
HOP-92 NSCLC = tested on: HOP-92 NSCLC
CCRF-CEM leukemia = tested on: CCRF-CEM leukemia
MCF7 breast = tested on: MCF7 breast
MALME-3M melanoma = tested on: MALME-3M melanoma
SF-295 CNS = tested on: SF-295 CNS
UACC-62 melanoma = tested on: UACC-62 melanoma
SF-268 CNS = tested on: SF-268 CNS
COLO 205 colon = tested on: COLO 205 colon
A549 NSCLC = tested on: A549 NSCLC
KM12 colon = tested on: KM12 colon
TK-10 renal = tested on: TK-10 renal
ACHN renal = tested on: ACHN renal
MOLT-4 leukemia = tested on: MOLT-4 leukemia
LOX IMVI melanoma = tested on: LOX IMVI melanoma
SN12C renal = tested on: SN12C renal
PC-3 prostate = tested on: PC-3 prostate
SF-539 CNS = tested on: SF-539 CNS
SK-OV-3 ovarian = tested on: SK-OV-3 ovarian
U251 CNS = tested on: U251 CNS
HL-60(TB) leukemia = tested on: HL-60(TB) leukemia
OVCAR-8 ovarian = tested on: OVCAR-8 ovarian
OVCAR-3 ovarian = tested on: OVCAR-3 ovarian
M14 melanoma = tested on: M14 melanoma
SNB-75 CNS = tested on: SNB-75 CNS
SNB-19 CNS = tested on: SNB-19 CNS
CAKI-1 renal = tested on: CAKI-1 renal
EKVX NSCLC = tested on: EKVX NSCLC
OVCAR-4 ovarian = tested on: OVCAR-4 ovarian
MDA-MB-231 breast = tested on: MDA-MB-231 breast
SK-MEL-2 melanoma = tested on: SK-MEL-2 melanoma
HCC-2998 colon = tested on: HCC-2998 colon
IGROV1 ovarian = tested on: IGROV1 ovarian
UO-31 renal = tested on: UO-31 renal
NCI-H460 lung = tested on: NCI-H460 lung
RXF 393 renal = tested on: RXF 393 renal
NCI-H522 lung = tested on: NCI-H522 lung
MDA-MB-435 = tested on: MDA-MB-435

In the case of `CN1CCN(Cc2ccc(NC(=O)c3nc4ccc5[nH]ncc5c4c4c3CCCC4)cc2C(F)(F)F)CC1`, the GI50 (A498 renal) is reported as 977 nM, the TGI (A498 renal) is reported as 2320 nM and the GI50 (786-0 renal) is reported as 895 nM. The TGI (786-0 renal) was 1730 nM, the GI50 (OVCAR-5 ovarian) was 843 nM and the TGI (OVCAR-5 ovarian) was 1580 nM. The GI50 (HS 578T breast) was 922 nM, the TGI (HS 578T breast) was 1970 nM and the GI50 (NCI-H226 lung) was 862 nM. For the same compound, the TGI (NCI-H226 lung) was 1770 nM, the GI50 (SK-MEL-5 melanoma) was 852 nM and the TGI (SK-MEL-5 melanoma) was 1540 nM. It also gave a GI50 (NCI/ADR-RES ovarian) of 847 nM, a TGI (NCI/ADR-RES ovarian) of 1580 nM and a GI50 (UACC-257 melanoma) of 920 nM. The TGI (UACC-257 melanoma) was 1840 nM, the GI50 (HCT-116 colon) was 855 nM and the TGI (HCT-116 colon) was 1710 nM. It also gave a GI50 (HCT-15 colon) of 792 nM, a TGI (HCT-15 colon) of 1520 nM and a GI50 (DU-145 prostate) of 902 nM. For the same compound, the TGI (DU-145 prostate) was 1630 nM, the GI50 (T-47D breast) was 926 nM and the TGI (T-47D breast) was 2030 nM. For the same compound, the GI50 (HOP-62 NSCLC) was 967 nM, the TGI (HOP-62 NSCLC) was 1920 nM and the GI50 (HT29 colon) was 894 nM. For the same compound, the TGI (HT29 colon) was 1810 nM, the GI50 (SR leukemia) was 469 nM and the TGI (SR leukemia) was 3480 nM. For the same compound, the GI50 (BT-549 breast) was 2130 nM, the TGI (BT-549 breast) was 4240 nM and the GI50 (SW-620 colon) was 892 nM. The TGI (SW-620 colon) was 1740 nM, the GI50 (NCI-H23 lung) was 901 nM and the TGI (NCI-H23 lung) was 1740 nM. The GI50 (SK-MEL-28 melanoma) was 862 nM, the TGI (SK-MEL-28 melanoma) was 1580 nM and the GI50 (K-562 leukemia) was 701 nM. For the same compound, the TGI (K-562 leukemia) was 1960 nM, the GI50 (RPMI-8226 leukemia) was 1110 nM and the TGI (RPMI-8226 leukemia) was 2690 nM. For the same compound, the GI50 (HOP-92 NSCLC) was 653 nM, the TGI (HOP-92 NSCLC) was 1350 nM and the GI50 (CCRF-CEM leukemia) was 1120 nM. It also gave a TGI (CCRF-CEM leukemia) of 2990 nM, a GI50 (MCF7 breast) of 848 nM and a TGI (MCF7 breast) of 1690 nM. It also gave a GI50 (MALME-3M melanoma) of 764 nM, a TGI (MALME-3M melanoma) of 1530 nM and a GI50 (SF-295 CNS) of 879 nM. For the same compound, the TGI (SF-295 CNS) was 1650 nM, the GI50 (UACC-62 melanoma) was 905 nM and the TGI (UACC-62 melanoma) was 1740 nM. For the same compound, the GI50 (SF-268 CNS) was 865 nM, the TGI (SF-268 CNS) was 1700 nM and the GI50 (COLO 205 colon) was 880 nM. For the same compound, the TGI (COLO 205 colon) was 1730 nM, the GI50 (A549 NSCLC) was 890 nM and the TGI (A549 NSCLC) was 1790 nM. The GI50 (KM12 colon) was 860 nM, the TGI (KM12 colon) was 1610 nM and the GI50 (TK-10 renal) was 846 nM. For the same compound, the TGI (TK-10 renal) was 1620 nM, the GI50 (ACHN renal) was 862 nM and the TGI (ACHN renal) was 1550 nM. For the same compound, the GI50 (MOLT-4 leukemia) was 995 nM, the TGI (MOLT-4 leukemia) was 2390 nM and the GI50 (LOX IMVI melanoma) was 846 nM. It also gave a TGI (LOX IMVI melanoma) of 1550 nM, a GI50 (SN12C renal) of 877 nM and a TGI (SN12C renal) of 1650 nM. The GI50 (PC-3 prostate) was 866 nM, the TGI (PC-3 prostate) was 1660 nM and the GI50 (SF-539 CNS) was 831 nM. It also gave a TGI (SF-539 CNS) of 1540 nM, a GI50 (SK-OV-3 ovarian) of 7080 nM and a TGI (SK-OV-3 ovarian) of 14000 nM. For the same compound, the GI50 (U251 CNS) was 909 nM, the TGI (U251 CNS) was 1780 nM and the GI50 (HL-60(TB) leukemia) was 943 nM. It also gave a TGI (HL-60(TB) leukemia) of 2020 nM, a GI50 (OVCAR-8 ovarian) of 998 nM and a TGI (OVCAR-8 ovarian) of 2080 nM. The GI50 (OVCAR-3 ovarian) was 868 nM, the TGI (OVCAR-3 ovarian) was 1600 nM and the GI50 (M14 melanoma) was 902 nM. It also gave a TGI (M14 melanoma) of 1770 nM, a GI50 (SNB-75 CNS) of 770 nM and a TGI (SNB-75 CNS) of 1490 nM. The GI50 (SNB-19 CNS) was 868 nM, the TGI (SNB-19 CNS) was 1620 nM and the GI50 (CAKI-1 renal) was 816 nM. For the same compound, the TGI (CAKI-1 renal) was 1530 nM, the GI50 (EKVX NSCLC) was 802 nM and the TGI (EKVX NSCLC) was 1530 nM. For the same compound, the GI50 (OVCAR-4 ovarian) was 861 nM, the TGI (OVCAR-4 ovarian) was 1670 nM and the GI50 (MDA-MB-231 breast) was 880 nM. It also gave a TGI (MDA-MB-231 breast) of 1650 nM, a GI50 (SK-MEL-2 melanoma) of 1030 nM and a TGI (SK-MEL-2 melanoma) of 2200 nM. The GI50 (HCC-2998 colon) was 867 nM, the TGI (HCC-2998 colon) was 1630 nM and the GI50 (IGROV1 ovarian) was 883 nM. For the same compound, the TGI (IGROV1 ovarian) was 1670 nM, the GI50 (UO-31 renal) was 785 nM and the TGI (UO-31 renal) was 1480 nM. For the same compound, the GI50 (NCI-H460 lung) was 906 nM, the TGI (NCI-H460 lung) was 1740 nM and the GI50 (RXF 393 renal) was 806 nM. The TGI (RXF 393 renal) was 1530 nM, the GI50 (NCI-H522 lung) was 922 nM and the TGI (NCI-H522 lung) was 1860 nM. For the same compound, the GI50 (MDA-MB-435) was 841 nM and the TGI (MDA-MB-435) was 1560 nM.
